Converted amounts (≈) assume the structure as drawn. The source made the active and inactive calls. The calls are words filed in the database; no cut-off is given here.
Key:
[1] = MRT (0 to infinity) in Sprague-Dawley rat at 20 mg/kg, po by UPLC analysis; assay type: ADME, organism-based; conditions: in vivo
Mus musculus [2] = experiment: Anti-inflammatory activity in zymosan-induced peritonitis C57BL/6J mouse model assessed as reduction in myeloid cells in peritoneal cavity preadministered intraperitoneally with compound for 1 hrs followed by zymosan administration and measured after 16 hrs by trypan blue staining based optical microscopic analysis; assay type: functional, organism-based; conditions: dose 10-50 mg/kg, route ip, time 17.0 hrs
[3] = MRT (0 to t) in Sprague-Dawley rat at 20 mg/kg, po by UPLC analysis; assay type: ADME, organism-based; conditions: in vivo
[4] = molecular target: T1, Protein cereblon/Tyrosine-protein kinase BTK (Homo sapiens, UniProt Q06187+Q96SW2); experiment: PROTAC activity at CRBN/BTK in human Ramos cells assessed as induction of BTK degradation at 100 nM incubated for 24 hrs by Western blot analysis relative to control; assay type: cell-based
Target sequence in this assay (Q06187 2-659 limits assumed): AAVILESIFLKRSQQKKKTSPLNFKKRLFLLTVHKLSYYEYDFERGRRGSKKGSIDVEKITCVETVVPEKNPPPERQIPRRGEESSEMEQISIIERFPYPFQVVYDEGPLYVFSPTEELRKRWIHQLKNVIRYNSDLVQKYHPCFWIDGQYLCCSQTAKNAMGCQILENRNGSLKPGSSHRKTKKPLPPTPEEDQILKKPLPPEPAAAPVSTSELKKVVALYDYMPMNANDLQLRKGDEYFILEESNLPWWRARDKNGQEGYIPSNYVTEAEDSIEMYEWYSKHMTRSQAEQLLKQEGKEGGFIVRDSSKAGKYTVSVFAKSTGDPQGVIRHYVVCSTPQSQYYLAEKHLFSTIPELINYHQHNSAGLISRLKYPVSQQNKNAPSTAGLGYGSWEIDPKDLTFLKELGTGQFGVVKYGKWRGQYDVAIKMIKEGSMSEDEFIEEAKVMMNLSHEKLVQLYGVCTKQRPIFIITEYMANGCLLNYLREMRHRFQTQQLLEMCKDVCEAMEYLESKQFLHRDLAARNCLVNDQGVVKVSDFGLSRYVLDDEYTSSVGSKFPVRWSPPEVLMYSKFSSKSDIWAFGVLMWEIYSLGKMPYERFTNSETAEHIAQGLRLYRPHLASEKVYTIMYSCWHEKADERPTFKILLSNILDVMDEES
Target sequence in this assay (Q96SW2 whole entry partner): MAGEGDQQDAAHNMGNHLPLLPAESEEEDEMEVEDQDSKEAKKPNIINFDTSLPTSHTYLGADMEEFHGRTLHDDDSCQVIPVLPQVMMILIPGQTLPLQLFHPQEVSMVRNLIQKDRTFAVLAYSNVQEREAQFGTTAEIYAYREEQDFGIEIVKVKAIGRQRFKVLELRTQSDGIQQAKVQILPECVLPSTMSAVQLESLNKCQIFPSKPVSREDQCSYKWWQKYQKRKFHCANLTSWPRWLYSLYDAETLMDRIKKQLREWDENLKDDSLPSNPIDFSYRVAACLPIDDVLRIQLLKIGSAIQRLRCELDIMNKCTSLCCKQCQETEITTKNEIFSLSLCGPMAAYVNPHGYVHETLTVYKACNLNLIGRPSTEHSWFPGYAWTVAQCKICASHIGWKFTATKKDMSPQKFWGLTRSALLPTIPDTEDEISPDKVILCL

Mus musculus [5] = experiment: Anti-inflammatory activity in zymosan-induced peritonitis C57BL/6J mouse model assessed as decrease in IL-6 level in peritoneal cavity preadministered intraperitoneally with compound for 1 hrs followed by zymosan administration and measured after 16 hrs by ELISA; assay type: functional, organism-based; conditions: dose 10-50 mg/kg, route ip, time 17.0 hrs
RAW264.7 [6] = experiment: Anti-inflammatory activity in LPS-stimulated mouse RAW264.7 cells assessed as reduction in IL-6 secretion at 0.1 to 10 uM preincubated with compound for 2 hrs followed by LPS stimulation and measured after 3 hrs by ELISA analysis; assay type: functional, cell-based; conditions: dose 0.1-10 µM, time 5.0 hrs
RAW264.7 [7] = experiment: Inhibition of NF-kappaB activation in LPS-stimulated mouse RAW264.7 cells assessed as prevention of IkappaB-alpha degradation at 0.1 to 10 uM preincubated with compound for 1 hrs followed by LPS stimulation and measured after 24 hrs by Western blot analysis; assay type: cell-based; conditions: dose 0.1-10 µM, time 25.0 hrs
[8] = Half-life in Sprague-Dawley rat at 2 mg/kg, iv measured after 48 hrs by UPLC analysis; assay type: ADME, organism-based; conditions: in vivo
[9] = molecular target: T1, Protein cereblon/Tyrosine-protein kinase BTK; experiment: PROTAC activity at CRBN/BTK in human MINO cells assessed as induction of BTK degradation incubated for 24 hrs by Western blot analysis; assay type: cell-based
Target sequence in this assay (Q06187 whole entry): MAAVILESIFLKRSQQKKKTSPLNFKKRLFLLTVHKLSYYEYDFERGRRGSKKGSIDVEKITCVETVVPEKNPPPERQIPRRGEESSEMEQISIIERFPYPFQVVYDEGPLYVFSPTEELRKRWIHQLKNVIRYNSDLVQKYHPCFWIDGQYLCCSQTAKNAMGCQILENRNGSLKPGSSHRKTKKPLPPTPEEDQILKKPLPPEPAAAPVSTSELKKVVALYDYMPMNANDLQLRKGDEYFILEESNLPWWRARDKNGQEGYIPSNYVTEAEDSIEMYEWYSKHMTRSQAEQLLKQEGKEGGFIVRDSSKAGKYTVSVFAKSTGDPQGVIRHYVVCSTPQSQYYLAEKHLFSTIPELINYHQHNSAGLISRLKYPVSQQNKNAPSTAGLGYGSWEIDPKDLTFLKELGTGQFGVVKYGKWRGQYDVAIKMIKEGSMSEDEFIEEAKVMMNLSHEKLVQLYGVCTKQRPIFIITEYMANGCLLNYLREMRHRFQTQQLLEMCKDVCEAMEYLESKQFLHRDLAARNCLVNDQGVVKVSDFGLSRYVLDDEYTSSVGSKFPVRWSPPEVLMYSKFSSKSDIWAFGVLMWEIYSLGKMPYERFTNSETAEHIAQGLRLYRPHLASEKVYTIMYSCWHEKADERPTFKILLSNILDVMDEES
Target sequence in this assay (Q96SW2 whole entry): as the sequence (Q96SW2 whole entry partner) above

[10] = molecular target: T1, Protein cereblon/Tyrosine-protein kinase BTK; experiment: PROTAC activity at CRBN/BTK in human Ramos cells assessed as hook effect at 10000 nM incubated for 24 hrs by Western blot analysis; assay type: cell-based
Target sequence in this assay (Q06187 2-659 limits assumed): as the sequence (Q06187 2-659 limits assumed) above
Target sequence in this assay (Q96SW2 whole entry partner): as the sequence (Q96SW2 whole entry partner) above

[11] = molecular target: T1, Protein cereblon/Tyrosine-protein kinase BTK; experiment: PROTAC activity at CRBN/BTK in human Ramos cells assessed as induction of BTK degradation at 100 nM pretreated with MG132 for 2 hrs followed by compound treatment and measured after 8 hrs by Western blot analysis; assay type: cell-based
Target sequence in this assay (Q06187 2-659 limits assumed): as the sequence (Q06187 2-659 limits assumed) above
Target sequence in this assay (Q96SW2 whole entry partner): as the sequence (Q96SW2 whole entry partner) above

RAW264.7 [12] = experiment: Anti-inflammatory activity in LPS-stimulated mouse RAW264.7 cells assessed as reduction in IL-6 mRNA level preincubated with compound for 2 hrs followed by LPS stimulation and measured after 3 hrs […]; assay type: functional, cell-based; conditions: dose 0.1-10 µM, time 5.0 hrs
Mus musculus [13] = experiment: Anti-inflammatory activity in zymosan-induced peritonitis C57BL/6J mouse model assessed as decrease in IL-1beta level in peritoneal cavity preadministered intraperitoneally with compound for 1 hrs followed by zymosan administration and measured after 16 hrs by ELISA; assay type: functional, organism-based; conditions: dose 10-50 mg/kg, route ip, time 17.0 hrs
[14] = AUC (0 to infinity) in Sprague-Dawley rat at 20 mg/kg, po by UPLC analysis; assay type: ADME, organism-based; conditions: in vivo
RAW264.7 [15] = experiment: Anti-inflammatory activity in LPS-stimulated mouse RAW264.7 cells assessed as reduction in IL-1beta mRNA level preincubated with compound for 2 hrs followed by LPS stimulation and measured after 3 hrs […]; assay type: functional, cell-based; conditions: dose 0.1-10 µM, time 5.0 hrs
[16] = molecular target: T1, Protein cereblon/Tyrosine-protein kinase BTK; experiment: PROTAC activity at CRBN/BTK in human Ramos cells assessed as induction of BTK degradation at 100 nM pretreated with ibrutinib for 2 hrs followed by compound treatment and measured after 8 hrs by Western blot analysis; assay type: cell-based
Target sequence in this assay (Q06187 2-659 limits assumed): as the sequence (Q06187 2-659 limits assumed) above
Target sequence in this assay (Q96SW2 whole entry partner): as the sequence (Q96SW2 whole entry partner) above

[17] = molecular target: Protein cereblon/Tyrosine-protein kinase BTK (Mus musculus) (UniProt P35991+Q8C7D2); experiment: PROTAC activity at CRBN/BTK in mouse RAW264.7 cells assessed as induction of BTK degradation by Western blot analysis; assay type: cell-based; conditions: dose 0.1-10 µM
[18] = molecular target: T1, Protein cereblon/Tyrosine-protein kinase BTK; experiment: PROTAC activity at CRBN/BTK in human Ramos cells assessed as induction of BTK degradation at 100 nM pretreated with bafilomycin for 2 hrs followed by compound treatment and measured after 8 hrs by Western blot analysis; assay type: cell-based
Target sequence in this assay (Q06187 2-659 limits assumed): as the sequence (Q06187 2-659 limits assumed) above
Target sequence in this assay (Q96SW2 whole entry partner): as the sequence (Q96SW2 whole entry partner) above

RAW264.7 [19] = experiment: Anti-inflammatory activity in LPS-stimulated mouse RAW264.7 cells assessed as reduction in IL-1beta secretion at 0.1 to 10 uM preincubated with compound for 2 hrs followed by LPS stimulation and measured after 3 hrs by ELISA analysis; assay type: functional, cell-based; conditions: dose 0.1-10 µM, time 5.0 hrs
[20] = Cmax in Sprague-Dawley rat at 20 mg/kg, po by UPLC analysis; assay type: ADME, organism-based; conditions: in vivo
[21] = Clearance in Sprague-Dawley rat at 2 mg/kg, iv measured after 48 hrs by UPLC analysis; assay type: ADME, organism-based; conditions: in vivo
[22] = molecular target: T1, Protein cereblon/Tyrosine-protein kinase BTK; experiment: PROTAC activity at CRBN/BTK in human Ramos cells assessed as induction of BTK degradation at 100 nM pretreated with compound for 24 hrs followed by compound washout and measured upto 48 hrs by Western blot analysis; assay type: cell-based
Target sequence in this assay (Q06187 2-659 limits assumed): as the sequence (Q06187 2-659 limits assumed) above
Target sequence in this assay (Q96SW2 whole entry partner): as the sequence (Q96SW2 whole entry partner) above

[23] = Cmax in Sprague-Dawley rat at 2 mg/kg, iv measured after 48 hrs by UPLC analysis; assay type: ADME, organism-based; conditions: in vivo
[24] = molecular target: T1, Protein cereblon/Tyrosine-protein kinase BTK; experiment: PROTAC activity at CRBN/BTK in human Ramos cells assessed as induction of BTK degradation incubated for 24 hrs by Western blot analysis; assay type: cell-based
Target sequence in this assay (Q06187 whole entry): as the sequence (Q06187 whole entry) above
Target sequence in this assay (Q96SW2 whole entry): as the sequence (Q96SW2 whole entry partner) above

[25] = Half-life in Sprague-Dawley rat at 20 mg/kg, po by UPLC analysis; assay type: ADME, organism-based; conditions: in vivo
[26] = MRT (0 to t) in Sprague-Dawley rat at 2 mg/kg, iv measured after 48 hrs by UPLC analysis; assay type: ADME, organism-based; conditions: in vivo
RAW264.7 [27] = experiment: Inhibition of NF-kappaB activation in LPS-stimulated mouse RAW264.7 cells assessed as inhibition of IkappaB-alpha phosphorylation at 0.1 to 10 uM preincubated with compound for 1 hrs followed by LPS stimulation and measured after 24 hrs by Western blot analysis; assay type: cell-based; conditions: dose 0.1-10 µM, time 25.0 hrs
[28] = molecular target: T1, Protein cereblon/Tyrosine-protein kinase BTK; experiment: PROTAC activity at CRBN/BTK in human Ramos cells assessed as induction of BTK degradation at 100 nM measured after 8 hrs by Western blot analysis relative to control; assay type: cell-based
[29] = AUC (0 to t) in Sprague-Dawley rat at 2 mg/kg, iv measured after 48 hrs by UPLC analysis; assay type: ADME, organism-based; conditions: in vivo
[30] = Apparent volume of distribution in Sprague-Dawley rat at 2 mg/kg, iv measured after 48 hrs by UPLC analysis; assay type: ADME, organism-based; conditions: in vivo, read-out: Vz
[31] = molecular target: T1, Protein cereblon/Tyrosine-protein kinase BTK; experiment: PROTAC activity at CRBN/BTK in human MINO cells assessed as induction of BTK degradation by measuring maximal efficacy incubated for 24 hrs by Western blot analysis relative to control; assay type: cell-based
[32] = AUC (0 to t) in Sprague-Dawley rat at 20 mg/kg, po by UPLC analysis; assay type: ADME, organism-based; conditions: in vivo
RAW264.7 [33] = experiment: Inhibition of NF-kappaB activation in LPS-stimulated mouse RAW264.7 cells assessed as reduction in phosphorylated p65 level at 0.1 to 10 uM preincubated with compound for 1 hrs followed by LPS stimulation and measured after 24 hrs by Western blot analysis; assay type: cell-based; conditions: dose 0.1-10 µM, time 25.0 hrs
RAW264.7 [34] = experiment: Cytotoxicity against mouse RAW264.7 cells assessed as reduction in cell viability upto 10 uM incubated for 24 hrs by CCK8 assay; assay type: toxicity, cell-based; conditions: raw264.7, 24 h
[35] = Aqueous solubility of compound incubated for 24 hrs by HPLC based shake flask method; assay type: physicochemical; conditions: buffer
RAW264.7 [36] = experiment: Inhibition of NF-kappaB activation in LPS-stimulated mouse RAW264.7 cells assessed as reduction in phosphorylated BTK level at 0.1 to 10 uM preincubated with compound for 1 hrs followed by LPS stimulation and measured after 24 hrs by Western blot analysis; assay type: cell-based; conditions: dose 0.1-10 µM, time 25.0 hrs
[37] = molecular target: T1, Protein cereblon/Tyrosine-protein kinase BTK; experiment: PROTAC activity at CRBN/BTK in human MINO cells assessed as hook effect upto 10000 nM incubated for 24 hrs by Western blot analysis; assay type: cell-based
[38] = Oral bioavailability in Sprague-Dawley rat at 20 mg/kg by UPLC analysis; assay type: ADME, organism-based; conditions: in vivo
[39] = MRT (0 to infinity) in Sprague-Dawley rat at 2 mg/kg, iv measured after 48 hrs by UPLC analysis; assay type: ADME, organism-based; conditions: in vivo
[40] = molecular target: T1, Protein cereblon/Tyrosine-protein kinase BTK; experiment: PROTAC activity at CRBN/BTK in human Ramos cells assessed as induction of BTK degradation by measuring maximal efficacy incubated for 24 hrs by Western blot analysis relative to control; assay type: cell-based
[41] = AUC (0 to infinity) in Sprague-Dawley rat at 2 mg/kg, iv measured after 48 hrs by UPLC analysis; assay type: ADME, organism-based; conditions: in vivo
[42] = molecular target: T1, Protein cereblon/Tyrosine-protein kinase BTK; experiment: PROTAC activity at CRBN/BTK in human Ramos cells assessed as induction of BTK degradation at 100 nM measured within 4 hrs by Western blot analysis; assay type: cell-based
[43] = molecular target: T1, Protein cereblon/Tyrosine-protein kinase BTK; experiment: PROTAC activity at CRBN/BTK in human Ramos cells assessed as induction of BTK degradation at 100 nM pretreated with pomalidomide for 2 hrs followed by compound treatment and measured after 8 hrs by Western blot analysis; assay type: cell-based

Chain of Protein cereblon/Tyrosine-protein kinase BTK (Mus musculus) (P35991 whole entry, looked up): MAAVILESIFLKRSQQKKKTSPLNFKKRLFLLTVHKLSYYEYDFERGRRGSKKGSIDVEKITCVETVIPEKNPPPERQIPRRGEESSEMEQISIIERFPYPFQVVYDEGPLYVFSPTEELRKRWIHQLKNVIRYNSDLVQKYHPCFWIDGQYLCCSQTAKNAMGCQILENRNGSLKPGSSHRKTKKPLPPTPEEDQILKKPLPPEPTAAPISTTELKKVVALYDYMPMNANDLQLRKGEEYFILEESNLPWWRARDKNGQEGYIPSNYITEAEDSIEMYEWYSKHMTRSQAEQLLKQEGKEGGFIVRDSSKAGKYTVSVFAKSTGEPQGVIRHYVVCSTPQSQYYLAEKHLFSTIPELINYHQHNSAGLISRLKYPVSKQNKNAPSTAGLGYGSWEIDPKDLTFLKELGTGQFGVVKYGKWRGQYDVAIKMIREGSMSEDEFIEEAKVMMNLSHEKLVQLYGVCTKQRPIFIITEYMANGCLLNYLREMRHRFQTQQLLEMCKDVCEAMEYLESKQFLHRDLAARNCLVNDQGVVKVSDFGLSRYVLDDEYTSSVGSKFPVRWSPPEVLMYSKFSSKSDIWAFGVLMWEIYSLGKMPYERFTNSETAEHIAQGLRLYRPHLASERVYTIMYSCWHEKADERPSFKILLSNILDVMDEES
Chain of Protein cereblon/Tyrosine-protein kinase BTK (Mus musculus) (Q8C7D2 whole entry, looked up): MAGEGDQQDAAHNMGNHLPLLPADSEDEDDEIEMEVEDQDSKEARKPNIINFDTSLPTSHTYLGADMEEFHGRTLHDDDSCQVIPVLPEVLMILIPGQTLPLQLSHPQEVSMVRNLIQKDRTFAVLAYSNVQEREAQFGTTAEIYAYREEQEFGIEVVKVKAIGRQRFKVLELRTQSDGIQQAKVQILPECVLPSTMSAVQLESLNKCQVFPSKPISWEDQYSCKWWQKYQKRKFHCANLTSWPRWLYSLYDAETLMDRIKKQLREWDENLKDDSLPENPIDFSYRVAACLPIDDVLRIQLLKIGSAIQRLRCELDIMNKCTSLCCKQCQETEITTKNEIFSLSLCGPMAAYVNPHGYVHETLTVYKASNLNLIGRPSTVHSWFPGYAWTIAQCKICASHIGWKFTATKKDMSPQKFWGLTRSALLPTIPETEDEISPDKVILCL

Compound: Nc1ncnc2c1c(-c1ccc(Oc3ccccc3)cc1)nn2C1CCN(C(=O)CN2CCN(CC3CN(c4ccc5c(c4)C(=O)N(C4CCC(=O)NC4=O)C5=O)C3)CC2)CC1 (stereo not drawn)
- MRT inf [1]: 5.23 h
- Activity (Mus musculus [2]): Dose-Dependent Effect
- MRT last [3]: 4.95 h
- Activity [4]: 99.4%
- Activity (Mus musculus [5]): Dose-Dependent Effect
- Activity (RAW264.7 [6]): Active
- inhibition (RAW264.7 [7]): Active
- half-life [8]: 1.82 h
- EC50 [9]: 7.07 nM
- Activity [10]: Active
- Activity [11]: inactive
- Activity (RAW264.7 [12]): Dose-Dependent Effect
- Activity (Mus musculus [13]): Dose-Dependent Effect
- AUC(0-inf) [14]: 29 ng·h/mL
- Activity (RAW264.7 [15]): Dose-Dependent Effect
- Activity [16]: inactive
- Activity [17]: Dose-Dependent Effect
- Activity [18]: Active
- Activity (RAW264.7 [19]): Active
- Cmax [20]: 9.7 ng/mL
- clearance [21]: 37.5 mL/min/kg
- Activity [22]: Active
- Cmax [23]: 1890 ng/mL
- EC50 [24]: 3.18 nM
- half-life [25]: 2.12 h
- MRT last at 48 h [26]: 1.27 h
- inhibition (RAW264.7 [27]): Active
- Activity [28]: 100%
- AUC(0-t) at 48 h [29]: 926 ng·h/mL
- Vd [30]: 5.85 L/kg
- Emax [31]: 100%
- AUC(0-t) [32]: 27.1 ng·h/mL
- inhibition (RAW264.7 [33]): Active
- Activity (RAW264.7 [34]): Non-Toxic
- solubility thermodynamic at 24 h [35]: 8.16 µg/mL (≈ 9.74 µM)
- inhibition (RAW264.7 [36]): Active
- Activity [37]: inactive
- bioavailability [38]: 0.25%
- MRT inf [39]: 1.37 h
- Emax [40]: 99.9%
- AUC(0-inf) [41]: 934 ng·h/mL
- Activity [42]: Active
- Activity [43]: inactive

Reference: ChEMBL document CHEMBL5625192, “Discovery of Ibrutinib-based BTK PROTACs with in vivo anti-inflammatory efficacy by inhibiting NF-κB activation” (Eur J Med Chem, 2023)
